Assay in all cases: cells
Holding throughout (assay type): cell-based

One test deals with Hepatoma HepG2. To be noted: cultured 48 h, MTT. The protocol:
(§1) A cell strain: Hepatoma HepG2, cervical cancer Hela, lung cancer A549, breast cancer MCF7 cell line and human normal liver cell HL7702 were purchased from Wuhan Boster Biological Technology Co., Ltd.;
(§2) HepG2, Hela, A549, MCF 7 cells in logarithmic growth phase and human normal hepatocytes HL7702 were centrifuged at 1500 rpm for 5 min, and the supernatant was discarded; the cells were digested with a suitable amount of trypsin, and then suspended with a suitable amount of culture medium (HepG2, Hela and HL7702 cells were suspended with penicillin-streptomycin RPMI1640 culture medium containing 10% calf serum, A549 and MCF 7 cells with penicillin-streptomycin high glucose DMEM culture medium containing 10% calf serum, to adjust the cell concentration to 1.5×10^4 cells/well, the cells were seeded in 96-well plates, and the following experimental groups were set:
(§3) 0.10 mL of the cell suspension was added to each well, and incubated at 37° C., 5% CO2 and saturated humidity for 12 h, and the culture medium was discarded when the cell density was nearly 70%. […] 100 μl of 5 mg/ml MTT was added per well, standing for 4 h at 37° C. 100 μl of DMSO was added to each well, followed by shaking on a shaker for 10 min at 37° C., the absorbance (OD) was measured at 492 nm, and the MTT ratio was calculated as the OD value of drug group/OD value of negative control group.

Test [1] relates to breast cancer MCF7 cell line. Particulars: cultured 48 h, MTT. The protocol:
as §1, §2, §3

A further test relates to lung cancer A549. Particulars: cultured 48 h, MTT. How it is done:
as §1, §2, §3

Test [2] concerns human normal liver cell HL7702. To be noted: human normal hepatocytes HL7702, cultured 48 h, MTT. How it is done: as §1, §2, §3
Another test has as its system cervical cancer Hela. Particulars: cultured 48 h, MTT. How it is done:
as §1, §2, §3

We go through seven compounds from patent publication US11319328B2 (priority 2017, dated 2022).

For the compound `COc1cc(C2c3cc4c(cc3C(Nc3cccc5ccc(C)nc35)C3COC(=O)C23)OCO4)cc(OC)c1O` (stereo not drawn) [Compound 30, 4β-NH-(8-aminoquinaldine)-4′-demethylepipodophyllotoxin], the IC50 (commonly the concentration at which inhibition is half-maximal) in the test with Hepatoma HepG2 was 5 ± 1.1 µM; in test [1] it was 3 ± 0.5 µM; with lung cancer A549, 0.5 ± 0.05 µM; in test [2], greater than 100 µM; in the test with cervical cancer Hela it was 4.2 ± 0.8 µM.
For `COc1cc(C2c3cc4c(cc3C(Nc3ccc5[nH]ncc5c3)C3COC(=O)C23)OCO4)cc(OC)c1O` (stereo not drawn) [Compound 31, 4β-NH-(5-indazolamine)-4′-demethylepipodophyllotoxin], the IC50 is 6.8 ± 1.5 µM in the test on Hepatoma HepG2; 3.5 ± 0.3 µM in test [1]; 1.7 ± 0.3 µM with lung cancer A549; greater than 100 µM in test [2]; 4.3 ± 0.9 µM in the test with cervical cancer Hela.
For the compound `COc1cc([C@@H]2c3cc4c(cc3[C@@H](Nc3ccc5[nH]ccc5c3)[C@@H]3COC(=O)[C@H]23)OCO4)cc(OC)c1O` [Compound 34, 4β-NH-(5-aminoindole)-4′-demethylepipodophyllotoxin], the IC50 with Hepatoma HepG2 is greater than 100 µM; in test [1] it was 76.3 ± 5.7 µM; in the test on lung cancer A549, greater than 100 µM; in test [2] it was greater than 100 µM; in the test with cervical cancer Hela, 21.7 ± 5.3 µM.
For the compound `COc1cc(C2c3cc4c(cc3C(Nc3ccc5cc[nH]c5c3)C3COC(=O)C23)OCO4)cc(OC)c1O` (stereo not drawn) [Compound 35, 4β-NH-(6-aminoindole)-4′-demethylepipodophyllotoxin], the IC50 in the test on Hepatoma HepG2 was 19.5 ± 2.4 µM; in test [1], 34.5 ± 3.8 µM; in the test with lung cancer A549, 6.5 ± 1 µM; in test [2], greater than 100 µM; with cervical cancer Hela, 21.1 ± 2.9 µM.
On to `COc1cc(C2c3cc4c(cc3C(Nc3cccc5cc[nH]c35)C3COC(=O)C23)OCO4)cc(OC)c1O` (stereo not drawn) [Compound 36, 4β-NH-(7-aminoindole)-4′-demethylepipodophyllotoxin], for which the IC50 with Hepatoma HepG2 is 15.4 ± 2.2 µM; in test [1], 8 ± 5.5 µM; in the test on lung cancer A549, 19.5 ± 1.5 µM; in test [2] it was 31.5 ± 3.2 µM; in the test on cervical cancer Hela it was 15.4 ± 6.1 µM.
Turning to `COc1cc(C2c3cc4c(cc3C(Nc3ccccc3-c3nc5ccccc5[nH]3)C3COC(=O)C23)OCO4)cc(OC)c1O` (stereo not drawn) [Compound 37, 4β-NH-(2-(2-aminophenyl)benzimidazole)-4′-demethylepipodophyllotoxin], the IC50 in the test with Hepatoma HepG2 is greater than 100 µM; in test [1] it was greater than 100 µM; in the test on lung cancer A549, greater than 100 µM; in test [2], greater than 100 µM; with cervical cancer Hela it was 48.6 ± 6.2 µM.
As to `COc1cc([C@@H]2c3cc4c(cc3[C@@H](O[C@@H]3O[C@@H]5CO[C@@H](C)O[C@H]5[C@H](O)[C@H]3O)[C@H]3COC(=O)[C@H]23)OCO4)cc(OC)c1O` [Etoposide, etoposide, reference compound], the IC50 was 20 ± 1.3 µM in the test on Hepatoma HepG2 (Homo sapiens); 53.8 ± 5.6 µM in test [1] (Homo sapiens); 22.5 ± 1.8 µM with lung cancer A549 (Homo sapiens); 24.6 ± 3.8 µM in test [2] (L02); 21.4 ± 1.6 µM in the test with cervical cancer Hela (Homo sapiens).
